Results taken from PMC5923171, “Novel Zinc-Attenuating Compounds as Potent Broad-Spectrum Antifungal Agents with In Vitro and In Vivo Efficacy” (Antimicrobial Agents and Chemotherapy, 2018).
≈ marks a conversion by molar mass, not a printed value.

Columns and labels:
[1] = Potentiometric titration, ligand-copper complex formation; format: binding; conditions: for copper binding (in words): potentiometric titration with CuSO4
Protocol: The Zn^2+-binding properties of ZAC307 and ZAC989 were further evaluated using a potentiometric assay, where pH is measured as a function of base (NaOH) added to the compound in either the absence or presence of metal. […] To determine the deprotonation constant, a solution of 1 mM ZAC307 or ZAC989 was titrated with 0.3 M NaOH at constant ionic strength (Fig. 2A and B). In a second run, the same titration was performed in the presence of 0.5 eq of Zn^2+ for ZAC307 and ZAC989. A shift in the pH curve in the presence of the metal (ZAC307, 0.5 eq of Zn^2+ [Fig. 2A]) compared to the absence of the metal (ZAC307 [Fig. 2A]) indicates binding of Zn^2+ to the compound. The measured pH data were analyzed with the Hyperquad program suite, taking into account all relevant equilibrium constants, including also the constants for metal hydroxylation. The analysis provides the pKa values and metal complex stability constants, as well as ligand-metal complex speciation calculation, indicating how many ZAC molecules are involved in coordinating the Zn^2+ ion at different pH values. […] ZAC989 bound copper with the formation constants log β1, log β2, and log β3 of 7.83, 13.37, and 20.62, respectively. The most dominant ZAC989-copper stoichiometry was a 3:1 stoichiometry (Fig. 2E).
Potentiometric measurements were carried out in DMSO-water (70:30, vol/vol) at 25°C as described previously ([22]). Titrations were performed with a pH meter (Denver Instruments) utilizing a glass electrode with AgCl reference filled with 3.0 M KCl. The electrode was equilibrated in DMSO-water (70:30, vol/vol) for at least 1 h before use. All experiments were performed at a constant ionic strength (0.1 M NaClO4). Three milliliters of a solution containing 1 mM compound was titrated with 0.3 M NaOH by manual additions in 1- to 5-μl increments with magnetic stirring. The metal-ligand binding constants were obtained from titrations of the metal complex solutions prepared in a 1:2 metal-to-ligand ratio. The titration data were refined by the nonlinear least-squares refinement program Hyperquad2013 ([37]) to determine the deprotonation and stability constants.

[2] = tested on: C. parapsilosis ATCC 22019; test: Antifungal susceptibility testing (MIC); format: cell-based, Candida parapsilosis; conditions: Lodderomyces parapsilosis, ATCC22019; at least 50% growth inhibition, RPMI, 24 h, 34°C
Protocol: (§1) Antifungal susceptibility testing was carried out as described previously ([38], [39]), with a few modifications. Briefly, for each yeast or mold growth inhibition assay, frozen stocks of yeast cells or spores were diluted to a final concentration of 0.5 × 10^5 to 2.5 × 10^5 CFU/ml in sterile water. ZAC989, ZAC307, and ZAC623 were dissolved in DMSO to 10 mM stocks from which half-log serial dilutions were prepared. Growth assays were subsequently performed by pipetting 3 μl of compound dissolved in DMSO (giving a final concentration of 1.5% DMSO), 100 μl of cell-spore suspension, and 97 μl of 2× RPMI medium (20.8 g/liter of RPMI 1640 medium, 69.06 g/liter of morpholinepropanesulfonic acid [MOPS], 36 g/liter of glucose) into a microtiter plate that was incubated for 24 h (yeasts) or 48 to 72 h (molds) at 34°C. Fungal growth was determined spectrophotometrically by optical density reading of each well at a wavelength of 492 nm on a Victor X5 (Perkin-Elmer) plate reader. […] Standard errors between repeated experiments were generally below 5%. The growth effect of exogenous addition of various divalent metals was evaluated by performing the antifungal susceptibility assay in the presence of 5 μM ZAC989 or ZAC307 and with increasing concentrations (0.003 to 50 μM) of ZnSO4, CuSO4, (NH4)2Fe(SO4)2, MgCl2, and CaCl2.

C. glabrata ATCC 90030 = test: Antifungal susceptibility testing (MIC); format: cell-based, Candida glabrata; conditions: Nakaseomyces glabratus, ATCC90030; at least 50% growth inhibition, RPMI, 24 h, 34°C
Protocol: as §1

C. glabrata Cg003 = test: Antifungal susceptibility testing (MIC); format: cell-based, Candida glabrata; conditions: Nakaseomyces glabratus, CG003, 24 h
Protocol: as §1

[3] = tested on: wild-type A. fumigatus strain (AF14); test: Growth capacity in sRPMI zinc-limiting medium, 24-well plates; format: cell-based, Aspergillus fumigatus; conditions: 75 μM compound, 44 h, 37°C
Protocol: The ZACs inhibited these molds and mucorales isolates in a range from 0.4 μg/ml to 5.4 μg/ml (Table 3). To assess the capacity of the ZACs to inhibit A. fumigatus growth in the presence of zinc, 1-ml aliquots of sRPMI zinc-limiting medium (RPMI 1640 medium [R8755; Sigma] supplemented with 10 μM FeSO4·7H2O, 1 μM CuSO4·5H2O, and 1 μM MnCl2·H2O) or this medium supplemented with 2, 5, or 50 μM zinc were inoculated with 10^5 conidia of a wild-type A. fumigatus strain (AF14), dispensed in 24-well culture plates, and incubated in the presence of either ZAC307 or ZAC989 at a final concentration 21 μg/ml or 27 μg/ml (equivalent to 75 μM), respectively (Fig. 5A).
Growth capacity experiments with A. fumigatus strains AF14, AF54, AF48, AF732, and AF731 were performed in 24-well flat-bottomed tissue culture plates (35-3047; Falcon). A stock solution of 10 mM TPEN (P4413; Sigma) was prepared in pure ethanol. For these experiments, 5 mM stock solutions of ZAC307 and ZAC989 were prepared by dissolving each compound in 80% (vol/vol) ethanol. A 0.5 M stock solution of Na2EDTA·2H2O (1.08421.1000; Merck) was prepared in sterile water. […] To quantitate mycelial growth, each plate was scanned in an Agfa SnapScan 1236s scanner, and the intensity of the wells was quantified using the open-source image processing program Image J2. The data were represented and analyzed with Prism software 7.0.

[4] = DMSO-water (70:30, vol/vol), CuSO4

Structure (SMILES) | formation constant log β1 (copper) [1, 4] | formation constant log β2 (copper) [1, 4] | formation constant log β3 (copper) [1, 4] | copper binding (in words) [1] | MIC [2] [µg/mL] | MIC (C. glabrata ATCC 90030) [µg/mL] | MIC (C. glabrata Cg003) [µg/mL] | reduction of growth capacity, 2 μM zinc plus compound compared to 50 μM zinc [3] [fold]
Cc1cc(O)n(-c2cc(N3CC[C@H](Oc4cnccc4C#N)C3)ncn2)n1 [ZAC989, 3-[(3S)-1-[6-(5-hydroxy-3-methyl-pyrazol-1-yl)pyrimidin-4-yl]pyrrolidin-3-yl]oxy-pyridine-4-carbonitrile] | 7.83 | 13.37 | 20.62 | chelates copper | 0.8 (≈ 2.2 µM) | 0.9 (≈ 2.48 µM) | 0.6 (≈ 1.65 µM) | 3.9
CN(C)c1cc(-n2nc(-c3ccccc3)cc2O)ncn1 [ZAC307, 2-[6-(dimethylamino)pyrimidin-4-yl]-5-phenyl-pyrazol-3-ol] | – | – | – | binds copper | 0.4 (≈ 1.42 µM) | 0.2 (≈ 0.711 µM) | 0.2 (≈ 0.711 µM) | 2.9
